Laboratory results reported in paper PMC5681660, “Reduced hepatitis B and D viral entry using clinically applied drugs as novel inhibitors of the bile acid transporter NTCP” (Scientific Reports, 2017).
Where a name gives a salt, the structure may show the parent alone. Read-outs that look alike come from different tables or passages of the source.

Tests used:
[1] = target: T1, human NTCP (Homo sapiens, UniProt Q14973); assay: Screening fluorescent competitive Myrcludex B-FITC binding assay (96-well, 10 µM drug)
T1 sequence (Q14973 1-349): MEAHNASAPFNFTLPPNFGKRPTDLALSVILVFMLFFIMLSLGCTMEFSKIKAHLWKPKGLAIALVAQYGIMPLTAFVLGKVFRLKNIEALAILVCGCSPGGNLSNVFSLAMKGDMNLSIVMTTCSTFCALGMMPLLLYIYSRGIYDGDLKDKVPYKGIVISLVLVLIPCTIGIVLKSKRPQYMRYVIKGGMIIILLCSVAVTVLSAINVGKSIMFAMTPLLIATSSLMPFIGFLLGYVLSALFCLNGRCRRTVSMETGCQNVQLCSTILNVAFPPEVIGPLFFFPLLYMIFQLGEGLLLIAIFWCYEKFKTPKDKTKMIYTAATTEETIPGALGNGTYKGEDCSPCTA

[2] = target: T1, human NTCP; assay: Screening taurocholate uptake assay (96-well, [14C]taurocholate, 10 µM drug)
[3] = screen, 10 µM drug, Myrcludex B-FITC binding
[4] = combined ranking from functional and binding screening assays
[5] = screen, 10 µM drug, taurocholate uptake
[6] = Prestwick library screen, Myrcludex B-FITC binding, 10 µM drug
[7] = Prestwick library screen, taurocholate uptake, 10 µM drug
[8] = ranking score beside the functional and binding assay B-scores of the screen
[9] = Prestwick library screen, 10 µM drug, B-score of Myrcludex B-FITC binding
[10] = Prestwick library screen, 10 µM drug, B-score of taurocholate uptake
[11] = combined ranking from functional and binding assay B-scores

| B-score binding assay [1, 3] | Ranking score [2, 4] | B-score functional assay [2, 5] | Structure (SMILES) | also measured |
| --- | --- | --- | --- | --- |
| -1.829 | 328.253 | 0.349 | CC1(C)OC(=O)NC1=O [Dimethadione] |  |
| -0.95 | 401.91 | 0.002 | COc1ccc(C(=O)c2ccccc2O)c(O)c1 [Dioxybenzone] |  |
|  |  |  | O=C(Nc1ccccc1)OCC(CN1CCCCC1)OC(=O)Nc1ccccc1 (stereo not drawn) [Diperodon hydrochloride] | B-score binding assay [1, 6]: 0.002; B-score functional assay [2, 7]: 0.512; Ranking score [2, 8]: 772.884 |
| 0.054 | 367.214 | -1.4 | OC(CCCN1CCCCC1)(c1ccccc1)c1ccccc1 [Diphenidol hydrochloride] |  |
|  |  |  | Cn1c(=O)c2c(ncn2CC(O)CO)n(C)c1=O (stereo not drawn) [Diprophylline] | B-score binding assay [1, 6]: 1.219; B-score functional assay [2, 7]: -0.019; Ranking score [2, 8]: 816.025 |
| -0.011 | 317.643 | -1.651 | OCCN(CCO)c1nc(N2CCCCC2)c2nc(N(CCO)CCO)nc(N3CCCCC3)c2n1 [Dipyridamole] |  |
| -0.963 | 355.307 | -0.152 | Cc1c(N(C)CS(=O)(=O)[O-])c(=O)n(-c2ccccc2)n1C.[Na+] [Dipyrone] |  |
|  |  |  | CC[C@H]1OC(=O)[C@H](C)[C@@H](O[C@H]2C[C@@](C)(OC)[C@@H](O)[C@H](C)O2)[C@H](C)[C@@H](O[C@@H]2O[C@H](C)C[C@H](N(C)C)[C@H]2O)[C@](C)(O)C[C@@H](C)[C@@H]2N[C@@H](COCCOC)O[C@H]([C@H]2C)[C@]1(C)O [Dirithromycin] | B-score binding assay [1, 9]: 0.123; B-score functional assay [2, 10]: 1.532; Ranking score [2, 11]: 934.441 |
|  |  |  | CC(C)N(CCC(C(N)=O)(c1ccccc1)c1ccccn1)C(C)C (stereo not drawn) [Disopyramide] | B-score binding assay [1, 9]: 2.245; B-score functional assay [2, 10]: 0.051; Ranking score [2, 11]: 925.407 |
|  |  |  | CC(CCc1ccc(O)cc1)NCCc1ccc(O)c(O)c1 (stereo not drawn) [Dobutamine hydrochloride] | B-score binding assay [1, 6]: 1.051; B-score functional assay [2, 7]: -0.038; Ranking score [2, 8]: 789.916 |
|  |  |  | NCCc1ccc(O)c(O)c1 [Dopamine hydrochloride] | B-score binding assay [1, 6]: 1.493; B-score functional assay [2, 7]: -0.07; Ranking score [2, 8]: 802.566 |
| -0.624 | 369.324 | -0.44 | CCN[C@H]1C[C@H](C)S(=O)(=O)c2sc(S(N)(=O)=O)cc21 [Dorzolamide hydrochloride] |  |
| 0.311 | 296.985 | -2.363 | CN(C)CC/C=C1\c2ccccc2CSc2ccccc21 [Dosulepin hydrochloride] |  |
| -1.194 | 446.058 | 0.629 | CCN1CC(CCN2CCOCC2)C(c2ccccc2)(c2ccccc2)C1=O.Cl (stereo not drawn) [Doxapram hydrochloride] |  |
|  |  |  | COc1cc2nc(N3CCN(C(=O)C4COc5ccccc5O4)CC3)nc(N)c2cc1OC (stereo not drawn) [Doxazosin mesylate] | B-score binding assay [1]: 0.211; B-score functional assay [2]: -0.292; Ranking score [2]: 599.787 |
| 0.002 | 385.759 | -1.158 | CN(C)CCC=C1c2ccccc2COc2ccccc21 [Doxepin hydrochloride] |  |
|  |  |  | Cn1c(=O)c2c(ncn2CC2OCCO2)n(C)c1=O [Doxofylline] | B-score binding assay [1, 9]: 0.388; B-score functional assay [2, 10]: 3.316; Ranking score [2, 11]: 1049.35 |
|  |  |  | COc1cccc2c1C(=O)c1c(O)c3c(c(O)c1C2=O)C[C@@](O)(C(=O)CO)C[C@@H]3O[C@H]1C[C@H](N)[C@H](O)[C@H](C)O1 [Doxorubicin hydrochloride] | B-score binding assay [1]: -0.177; B-score functional assay [2]: 0.02; Ranking score [2]: 577.781 |
| -1.041 | 380.385 | -0.015 | C[C@H]1c2cccc(O)c2C(=O)C2=C(O)[C@]3(O)C(=O)C(C(N)=O)=C(O)[C@@H](N(C)C)[C@@H]3[C@@H](O)[C@@H]21 [Doxycycline hydrochloride] |  |
| -1.318 | 393.435 | 0.231 | CN(C)CCOC(C)(c1ccccc1)c1ccccn1 (stereo not drawn) [Doxylamine succinate] |  |
